Experiments:
[1] = tested on: 3T3-L1 preadipocytes; experiment: Clonal expansion / cell proliferation assay by LDH activity; assay type: cell-based
Method: Preadipocytes were induced to undergo clonal expansion by MDI, or α-PGG, or β-PGG in the presence of MDI. 24 or 48 hrs after induction, the media was removed and the cells were lysed. The […] (LDH) activity of the cell lysates was measured by LDH kit. Cell growth media were also collected and their LDH activity from dead cells was also measured (not shown on this graph). LDH activity is a constant per cell in a given cell type, the LDH activity measured is proportional to the number of cells in the samples.
A cell proliferation assay was used to determine if PGG inhibits adipocyte differentiation by blocking clonal expansion. […] The basis for the difference between the anomers in clonal expansion and differentiation is not known.

[2] = tested on: 3T3-L1 preadipocytes; experiment: Adipocyte differentiation (AD) of preadipocytes, MDI induction, Oil Red O staining and glucose uptake; assay type: cell-based; conditions: about 10 days, 30 μM PGG, FIG. 8
Method: (§1) PGG, either as a mixture or as single isomer (α or β), is added to either adipocytes (A) or preadipocytes (B). GTS activity (A) and AD activity (B) of PGG are measured by ^3H-glucose uptake. GLUT4 is not expressed in preadipocytes, so glucose uptake can be used as an indirect measurement of adipocyte differentiation.
Ten days after induction, the cells were stained with Oil Red 0 and photographed at magnification X200. Only those cells that contain fat vesicles (triglyceride) can be stained.
After about 10 days MDI induces differentiation, which is clearly visible as the change from fibroblast-like preadipcytes to round-shaped, fat vesicle-containing adipocytes.
3T3-L1 adipocytes were purchased from ATCC, and maintained and passed as preadipocytes in DMEM supplemented with 10% calf serum in a 37° C. incubator with 10% CO2 as required by the cells. To test the effect of PGG on adipogenesis, the preadipocytes were incubated either with a differentiation-induction cocktail comprised of 3-isobutyl-1-methylxanthine, […], a cocktail comprised of 3-isobutyl-1-methylxanthine, dexamethasone (MD) and PGG; or with MDI plus PGG.
In order to study the mechanism by which PGG inhibits 3T3-L1 preadipocyte differentiation, we used gene expression studies. This strategy allows us to determine whether PGG specifically acts on genes that participate in the differentiation process. […] After about 10 days MDI induces differentiation, which is clearly visible as the change from fibroblast-like preadipcytes to round-shaped, fat vesicle-containing adipocytes (FIG. 8 middle).

[3] = tested on: ob/ob mice; experiment: Plasma insulin levels in ob/ob mice after intraperitoneal injection; assay type: in vivo; conditions: single intraperitoneal injection
Method: Diabetic and obese ob/ob mice were injected intraperitoneally with either water or α-PGG. Plasma from each mouse was isolated at various times post injection and was measured for insulin levels.

[4] = tested on: db/db mice; experiment: Blood glucose in fasting diabetic db/db mice after oral dose; assay type: in vivo; conditions: single oral dose 25 mg/kg body weight, versus vehicle, P<0.01, FIG. 11A
Method: (§2) FIG. 11. Effect of PGG on blood glucose levels in db/db and ob/ob mice. Various doses of α-PGG were orally delivered without glucose to db/db mice(A) or with glucose to ob/ob mice (B) mice. At different times post the delivery, glucose was determined in samples from tail blood.
Male db/db (leptin receptor deficient) mice of 8 weeks of age may be used to determine in vivo dosages for simulating glucose uptake The mice are divided into three to four groups depending upon how many dosages are analyzed. Ten μl of a test solution with pre-determined concentrations of the test gallotannin composition is orally administered to the test mice. The negative control mice receive the same amount of water. After the administration, blood is collected from the mouse tail at various times post oral administration. The blood glucose level of a mouse at a given time post administration is measured by applying six μl of blood on a One Touch Basic Complete Diabetes Monitoring System (from Lifescan). The effective dosage range and the optimal dosage can be determined by comparison of the reduction of blood glucose levels by different dosages relative to the glucose level of the negative (water) control group.
The reduction of the glucose level is about 15-20% depending on the time post α-pGG administration (P<0.01, FIG. 11A).

[5] = tested on: ob/ob mice; experiment: Glucose tolerance test in ob/ob mice; assay type: in vivo
Method: as §2
FIG. 12. PGG protects ob/ob mice from hyperglycemia immediately after glucose challenge and hypoglycemia several days after the challenge. At various time points after the glucose challenge, blood glucose levels were measured in tail blood.
To determine if α-PGG is also effective in improving glucose tolerance in diabetic and obese mice, a glucose tolerance test was performed using ob/ob mice. Glucose or glucose plus α-PGG were orally delivered into male ob/ob mice, and blood glucose levels were measured at various times post glucose/PGG administration.
A single high does of glucose in ob/ob mice can be fatal, either because of the very high levels of blood glucose levels […] after the glucose challenge or because of the abnormally low glucose levels 2-3 days after the glucose challenge. […] Although the protection mechanisms are unknown at this time, it is very likely that α-PGG protected the ob/ob mice not only by its GTS activity, but also some other activity such as AD-related activity.

[6] = tested on: 3T3-L1 adipocytes; experiment: Glucose transport stimulatory (GTS) activity, 2-deoxy-D-[3H]glucose uptake; assay type: cell-based; conditions: 3T3-L1 adipocytes, FIG. 2
Method: as §1
Glucose uptake activity in cells may be analyzed by measuring the uptake of 2-deoxy-D-[^3H] glucose using a standard assay. Confluent 3T3-L1 adipocytes grown in 12-well plates are washed twice with serum-free DMEM and incubated with 1 mL of the same medium at 37° C. for 2 h. The cells are washed 3 times with Krebs-Ringer-Hepes (KRP) buffer and incubated with 0.9 mL KRP buffer at 37° C. for 30 min. […] Glucose uptake is initiated by addition of 0.1 mL KRP buffer and 37 MBq/L 2-deoxy-D-[^3H] glucose and 1 mmol/L glucose as final concentrations. After 10 min, glucose uptake is terminated by washing the cells 3 times with cold PBS. The cells are lysed with 0.7 mL of 1% Triton X-100 at 37° C. for 20 min. The radioactivity retained by the cell lysates is determined by a scintillation counter. The dosage that induces the maximal glucose uptake can be selected among the experimental samples.
3T3-L1 adipocytes were purchased from ATCC, and maintained and passed as preadipocytes in DMEM supplemented with 10% calf serum in a 37° C. incubator with 10% CO2 as required by the cells. The cells were induced to differentiate into adipocytes by addition of MDI induction cocktail as described in Liu, F., Kim, J., Li, Y., Liu, X., Li, J. & Chen, X. (2001) An extract of Lagerstroemia speciosa L. has insulin-like glucose uptake-stimulatory and adipocyte differentiation-inhibitory activities in 3T3-L1 cells. J. Nutrition 131:2242-224, which is specifically incorporated herein by reference. Varying amounts of α-PGG and β-PGG were then added to the medium and the amount of glucose taken up by control and treated cells determined using a standard glucose uptake assay, as described in Liu et al. As shown in FIG. 2A chemically synthesized and plant derived β-PGG have similar glucose transport stimulatory (GTS). The GTS activity of α-PGG is consistently 10-20% higher than that of β-PGG (FIG. 2).
Confluent 3T3-L1 adipocytes grown in 12-well plates were washed twice with serum-free DMEM and incubated with 1 mL of the same medium at 37° C. for 2 h. The cells were washed 3 times with Krebs-Ringer-Hepes (KRP) buffer and incubated with 0.9 mL KRP buffer at 37° C. for 30 min. Compounds listed in the table below were then added at 20-40 μM (final concentration?) and adipocytes were incubated at 37° C. for 15 min. Glucose uptake was initiated by addition of 0.1 mL KRP buffer and 37 MBq/L 2-deoxy-D-[3H] glucose and 1 mmol/L glucose as final concentrations. After 10 min, glucose uptake was terminated by washing the cells 3 times with cold PBS. The cells were lysed with 0.7 mL of 1% Triton X-100 at 37° C. for 20 min. The radioactivity retained by the cell lysates is determined by a scintillation counter.

[7] = in the presence of MDI, FIG. 10

## O=C(OC[C@H]1O[C@H](OC(=O)c2cc(O)c(O)c(O)c2)[C@H](OC(=O)c2cc(O)c(O)c(O)c2)[C@@H](OC(=O)c2cc(O)c(O)c(O)c2)[C@@H]1OC(=O)c1cc(O)c(O)c(O)c1)c1cc(O)c(O)c(O)c1 [α-PGG, 1,2,3,4,6-penta-O-galloyl-α-D-glucose]
[1]; data not shown
  cell-killing compared to MDI induced cells: without significantly increased cell-killing
[1]; [7]
  first round of clonal expansion: not inhibited
  second round of clonal expansion: partially inhibited
[2]
  differentiation of preadipocytes treated with MDI plus compound: abolishes the differentiation
[3]
  plasma insulin levels versus water: significantly lower plasma insulin levels
[4]
  reduction of the blood glucose level: 15-20%
[5]; 2-5 days after challenge, FIG. 12
  protection from extremely low glucose levels after glucose challenge: protected these mice from suffering extremely low glucose levels
[5]; ob/ob mice, oral
  time after treatment at which improved blood glucose levels could still be observed: ≥ 24 h
[5]; oral glucose plus α-PGG, P<0.001, FIG. 11B
  blood glucose levels compared to glucose alone: significantly lower blood glucose levels
[6]
  GTS activity higher than that of β-PGG: 10-20%
